Measurements from ChEMBL document CHEMBL5500423, “More than an Amide Bioisostere: Discovery of 1,2,4-Triazole-containing Pyrazolo[1,5-a]pyrimidine Host CSNK2 Inhibitors for Combatting β-Coronavirus Replication” (J Med Chem, 2024).
Calls of active or inactive are those of the source. The calls are words filed in the database; no cut-off is given here.

Experiments:
[1] = target: T1, Casein kinase II subunit alpha' (Homo sapiens, UniProt P19784); assay: Inhibition of NLuc-fused CSNK2A2 (unknown origin) expressed in HEK293 cells incubated for 2 hrs by NanoBRET assay; format: cell-based
Target sequence in this assay (P19784 whole entry, the tested form may be a part): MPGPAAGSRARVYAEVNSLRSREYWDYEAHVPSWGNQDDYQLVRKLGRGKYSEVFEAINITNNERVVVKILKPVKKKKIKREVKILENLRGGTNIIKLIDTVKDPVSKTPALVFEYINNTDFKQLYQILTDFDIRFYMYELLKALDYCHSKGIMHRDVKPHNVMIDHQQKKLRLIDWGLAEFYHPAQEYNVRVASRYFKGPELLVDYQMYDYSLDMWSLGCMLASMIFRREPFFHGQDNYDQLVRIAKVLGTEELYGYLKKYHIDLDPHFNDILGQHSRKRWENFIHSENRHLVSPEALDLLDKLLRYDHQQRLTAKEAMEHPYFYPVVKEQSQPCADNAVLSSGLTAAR

Murine hepatitis virus = assay: Antiviral activity against Murine hepatitis virus infected in mouse DBT cells preincubated with cells for 1 hrs followed by viral infection and measured after 10 hrs by luminometer; format: functional, organism-based; details: Murine coronavirus
[2] = Kinetic solubility of compound in PBS at pH 7.4 incubated for 24 hrs by HPLC analysis; format: physicochemical; details: buffer, pH 7.4, 24 h
[3] = Cytotoxicity against human A549-ACE2 cells assessed as cell viability at 1 uM incubated for 48 hrs by CellTiter-Glo2 assay relative to control; format: toxicity, cell-based; details: a549-ace2, 48 h
[4] = Cytotoxicity against human A549-ACE2 cells assessed as cell viability at 0.1 uM incubated for 48 hrs by CellTiter-Glo2 assay relative to control; format: toxicity, cell-based; details: a549-ace2, 48 h
[5] = Apparent permeability from apical to basolateral side in MDCK-MDR1 cells at 1 uM incubated for 2 hrs by fluorescence plate reader analysis; format: ADME, cell-based, Canis lupus familiaris; details: dog, mdck-mdr1, 2 h
[6] = Apparent permeability from basolateral to apical side in MDCK-MDR1 cells at 1 uM incubated for 2 hrs by fluorescence plate reader analysis; format: ADME, cell-based, Canis lupus familiaris; details: dog, mdck-mdr1, 2 h
[7] = Intrinsic clearance in male CD-1 mouse at 3 mg/kg, iv measured after 5 hrs by LC-MS/MS analysis; format: ADME, organism-based; details: in vivo
[8] = target: T1, Casein kinase II subunit alpha'; assay: Inhibition of human CSNK2A2 expressed in HEK293 cells incubated for 2 hrs by NanoBRET assay; format: cell-based
Target sequence in this assay (P19784 whole entry, the tested form may be a part): as above

[9] = target: Dual specificity protein kinase CLK1 (Homo sapiens, UniProt P49759); assay: Inhibition of human CLK1 expressed in HEK293 cells incubated for 2 hrs by NanoBRET assay; format: cell-based
[10] = target: Dual specificity protein kinase CLK2 (Homo sapiens, UniProt P49760); assay: Inhibition of human CLK2 expressed in HEK293 cells incubated for 2 hrs by NanoBRET assay; format: cell-based
[11] = target: Death-associated protein kinase 2 (Homo sapiens, UniProt Q9UIK4); assay: Inhibition of human DAPK2 expressed in HEK293 cells incubated for 2 hrs by NanoBRET assay; format: cell-based
[12] = target: T2, Homeodomain-interacting protein kinase 4 (Homo sapiens, UniProt Q8NE63); assay: Inhibition of human HIPK4 expressed in HEK293 cells incubated for 2 hrs by NanoBRET assay; format: cell-based
T2 sequence (Q8NE63 whole entry): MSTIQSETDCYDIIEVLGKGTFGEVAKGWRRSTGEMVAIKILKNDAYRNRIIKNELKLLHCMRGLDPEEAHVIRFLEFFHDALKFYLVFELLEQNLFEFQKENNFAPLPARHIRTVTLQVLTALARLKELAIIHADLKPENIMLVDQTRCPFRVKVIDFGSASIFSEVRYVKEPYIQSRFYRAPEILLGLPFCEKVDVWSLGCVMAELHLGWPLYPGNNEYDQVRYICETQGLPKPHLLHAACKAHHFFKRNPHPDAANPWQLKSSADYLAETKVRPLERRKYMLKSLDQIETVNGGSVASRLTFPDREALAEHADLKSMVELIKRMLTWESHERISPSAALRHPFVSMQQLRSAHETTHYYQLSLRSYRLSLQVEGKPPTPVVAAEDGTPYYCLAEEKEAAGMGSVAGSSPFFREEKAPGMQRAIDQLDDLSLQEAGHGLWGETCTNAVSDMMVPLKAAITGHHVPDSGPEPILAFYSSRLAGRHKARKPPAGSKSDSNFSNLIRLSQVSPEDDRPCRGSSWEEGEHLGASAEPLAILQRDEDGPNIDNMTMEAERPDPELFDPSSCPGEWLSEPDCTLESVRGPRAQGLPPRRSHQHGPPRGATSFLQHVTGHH

[13] = target: Dual specificity protein kinase CLK4 (Homo sapiens, UniProt Q9HAZ1); assay: Inhibition of human CLK4 expressed in HEK293 cells incubated for 2 hrs by NanoBRET assay; format: cell-based
[14] = target: Phosphorylase b kinase gamma catalytic chain, skeletal muscle/heart isoform (Homo sapiens, UniProt Q16816); assay: Inhibition of human PHKG1 expressed in HEK293 cells incubated for 2 hrs by NanoBRET assay; format: cell-based
[15] = target: Cyclin-dependent kinase 7 (Homo sapiens, UniProt P50613); assay: Inhibition of human CDK7 expressed in HEK293 cells incubated for 2 hrs by NanoBRET assay; format: cell-based
[16] = target: Dual specificity tyrosine-phosphorylation-regulated kinase 1A (Homo sapiens) (UniProt Q13627); assay: Binding affinity to human DYRK1A expressed in HEK293 cells assessed as target occupancy upto 3 uM incubated for 2 hrs by NanoBRET assay; format: cell-based
[17] = target: Casein kinase II subunit alpha (Homo sapiens, UniProt P68400); assay: Inhibition of CSNK2A1 (unknown origin) in presence of ATP by Eurofins radiometric enzymatic assay
[18] = target: T1, Casein kinase II subunit alpha'; assay: Inhibition of CSNK2A2 (unknown origin) in presence of ATP by Eurofins radiometric enzymatic assay
Target sequence in this assay (P19784 whole entry, the tested form may be a part): as the sequence (P19784 whole entry, the tested form may be a part) above

[19] = target: T1, Casein kinase II subunit alpha'; assay: Inhibition of NLuc-fused CSNK2A2 (unknown origin) expressed in digitonin-permeabilized HEK293 cells incubated for 25 mins by NanoBRET assay; format: cell-based
[20] = target: Casein kinase 2 (Homo sapiens) (UniProt P67870+P68400+P19784+Q8NEV1); assay: Inhibition of CSNK2 downstream signaling in human A549-ACE2 cells assessed as reduction in EIF2S2 phosphorylation at 1 to 5 uM measured after 24 hrs by Western blot analysis; format: cell-based; details: dose 1-5 µM
[21] = Cytotoxicity against human A549-ACE2 cells assessed as reduction in cell viability at >10 uM pretreated for 1 hrs followed by mock infection for 2 hrs and replacement with fresh medium containing compound and measured 48 hrs post mock-infection by LDH assay; format: toxicity, cell-based; details: a549-ace2, 49 h

Dual specificity protein kinase CLK2, sequence (P49760 whole entry): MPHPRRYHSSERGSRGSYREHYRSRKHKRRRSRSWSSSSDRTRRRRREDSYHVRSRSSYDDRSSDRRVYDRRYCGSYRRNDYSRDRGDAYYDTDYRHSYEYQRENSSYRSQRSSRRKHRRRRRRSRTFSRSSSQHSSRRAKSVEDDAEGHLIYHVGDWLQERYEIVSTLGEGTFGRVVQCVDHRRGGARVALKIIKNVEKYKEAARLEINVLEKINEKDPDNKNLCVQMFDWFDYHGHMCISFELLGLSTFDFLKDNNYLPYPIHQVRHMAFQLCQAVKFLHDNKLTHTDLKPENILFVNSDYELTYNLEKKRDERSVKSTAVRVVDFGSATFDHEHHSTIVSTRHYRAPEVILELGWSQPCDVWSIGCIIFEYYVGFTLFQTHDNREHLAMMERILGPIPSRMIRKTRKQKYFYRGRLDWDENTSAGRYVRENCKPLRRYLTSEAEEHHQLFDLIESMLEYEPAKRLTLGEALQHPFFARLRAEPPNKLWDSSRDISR
Casein kinase II subunit alpha, sequence (P68400 whole entry): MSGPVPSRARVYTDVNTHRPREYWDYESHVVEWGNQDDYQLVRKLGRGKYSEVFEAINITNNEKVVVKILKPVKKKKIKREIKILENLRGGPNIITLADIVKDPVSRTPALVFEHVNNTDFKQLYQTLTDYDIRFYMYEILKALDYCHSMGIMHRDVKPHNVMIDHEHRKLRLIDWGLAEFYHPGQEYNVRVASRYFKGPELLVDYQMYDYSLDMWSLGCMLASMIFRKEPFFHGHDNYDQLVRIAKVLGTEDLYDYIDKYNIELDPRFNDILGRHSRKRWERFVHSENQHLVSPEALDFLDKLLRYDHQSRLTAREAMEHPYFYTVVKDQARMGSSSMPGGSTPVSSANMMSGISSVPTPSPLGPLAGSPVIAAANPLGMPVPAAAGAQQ
Dual specificity protein kinase CLK4, sequence (Q9HAZ1 whole entry, canonical isoform): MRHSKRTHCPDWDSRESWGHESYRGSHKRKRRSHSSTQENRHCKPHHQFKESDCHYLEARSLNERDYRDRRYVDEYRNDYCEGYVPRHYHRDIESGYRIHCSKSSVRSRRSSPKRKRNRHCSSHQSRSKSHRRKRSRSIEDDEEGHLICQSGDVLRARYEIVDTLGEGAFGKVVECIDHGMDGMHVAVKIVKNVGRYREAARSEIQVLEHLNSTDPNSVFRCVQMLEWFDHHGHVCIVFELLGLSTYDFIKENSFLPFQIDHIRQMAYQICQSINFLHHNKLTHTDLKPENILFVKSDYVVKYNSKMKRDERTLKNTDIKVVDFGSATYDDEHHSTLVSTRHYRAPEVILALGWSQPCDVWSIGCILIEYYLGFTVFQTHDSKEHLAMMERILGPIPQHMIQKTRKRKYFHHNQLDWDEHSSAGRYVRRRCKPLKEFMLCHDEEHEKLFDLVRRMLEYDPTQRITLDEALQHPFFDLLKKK
Cyclin-dependent kinase 7, sequence (P50613 whole entry): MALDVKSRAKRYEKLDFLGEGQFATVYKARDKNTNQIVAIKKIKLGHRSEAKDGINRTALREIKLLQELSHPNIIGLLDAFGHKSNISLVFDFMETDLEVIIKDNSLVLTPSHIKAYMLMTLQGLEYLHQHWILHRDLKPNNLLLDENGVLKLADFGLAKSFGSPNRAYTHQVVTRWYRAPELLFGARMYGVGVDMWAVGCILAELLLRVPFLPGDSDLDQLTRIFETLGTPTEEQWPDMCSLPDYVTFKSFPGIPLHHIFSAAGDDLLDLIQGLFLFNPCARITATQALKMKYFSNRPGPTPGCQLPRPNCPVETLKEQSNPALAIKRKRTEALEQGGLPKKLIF
Phosphorylase b kinase gamma catalytic chain, skeletal muscle/heart isoform, sequence (Q16816 whole entry, canonical isoform): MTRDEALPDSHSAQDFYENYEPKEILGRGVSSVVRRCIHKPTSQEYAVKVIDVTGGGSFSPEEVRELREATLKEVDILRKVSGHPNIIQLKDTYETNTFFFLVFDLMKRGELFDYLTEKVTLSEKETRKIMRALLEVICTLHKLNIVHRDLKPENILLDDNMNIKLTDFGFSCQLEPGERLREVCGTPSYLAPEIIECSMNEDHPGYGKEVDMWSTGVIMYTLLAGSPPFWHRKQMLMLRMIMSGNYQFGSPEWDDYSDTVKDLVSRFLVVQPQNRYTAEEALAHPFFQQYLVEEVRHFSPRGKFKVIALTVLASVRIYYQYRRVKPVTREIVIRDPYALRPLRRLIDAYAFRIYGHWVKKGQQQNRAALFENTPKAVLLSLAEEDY
Death-associated protein kinase 2, sequence (Q9UIK4 whole entry): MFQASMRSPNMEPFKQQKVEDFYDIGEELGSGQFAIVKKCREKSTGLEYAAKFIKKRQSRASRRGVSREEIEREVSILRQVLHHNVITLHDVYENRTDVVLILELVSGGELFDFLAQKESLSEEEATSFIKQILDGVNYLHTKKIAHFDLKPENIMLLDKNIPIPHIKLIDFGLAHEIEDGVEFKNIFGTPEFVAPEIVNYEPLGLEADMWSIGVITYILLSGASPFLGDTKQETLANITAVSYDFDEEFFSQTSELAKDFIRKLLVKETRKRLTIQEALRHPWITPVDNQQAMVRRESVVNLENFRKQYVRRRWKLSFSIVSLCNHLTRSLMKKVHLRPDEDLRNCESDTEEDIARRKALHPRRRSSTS
Dual specificity protein kinase CLK1, sequence (P49759 whole entry): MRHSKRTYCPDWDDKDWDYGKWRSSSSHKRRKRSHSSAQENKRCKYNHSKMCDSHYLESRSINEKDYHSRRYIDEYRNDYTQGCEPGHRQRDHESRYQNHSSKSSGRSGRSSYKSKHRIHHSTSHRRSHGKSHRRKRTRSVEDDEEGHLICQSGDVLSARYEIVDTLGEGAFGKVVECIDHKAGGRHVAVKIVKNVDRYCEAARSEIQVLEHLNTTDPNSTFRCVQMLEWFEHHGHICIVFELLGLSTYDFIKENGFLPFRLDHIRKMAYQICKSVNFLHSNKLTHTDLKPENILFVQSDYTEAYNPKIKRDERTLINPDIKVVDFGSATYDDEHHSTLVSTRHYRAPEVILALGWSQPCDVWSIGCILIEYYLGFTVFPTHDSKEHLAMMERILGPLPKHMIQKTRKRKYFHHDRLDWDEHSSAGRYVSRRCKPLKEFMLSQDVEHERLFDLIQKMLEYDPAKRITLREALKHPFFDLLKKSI

Row | SMILES | IC50 [1] [nM] | IC50 (Murine hepatitis virus) [nM] | Kinetic_solubility [2] [µg/mL] | Activity [3] [%] | Activity [4] [%] | also measured
1 | CCN(CC)CCN(C)c1ccc(Nc2cc(NC3CC3)n3ncc(C#N)c3n2)cc1-n1cnnc1 | 100 | 794 | 60 | 100 | 98 | 
2 | N#Cc1cnn2c(NC3CC3)cc(Nc3ccc(N4CC[C@H](N)C4)c(-n4cnnc4)c3)nc12 | 158 | 398 | 49 | 85 |  | 
3 | C[C@@H](N)CN(C)c1ccc(Nc2cc(NC3CC3)n3ncc(C#N)c3n2)cc1-n1cnnc1 | 251 | 501 | 62 | 91 | 95 | 
4 | C[C@H](N)CN(C)c1ccc(Nc2cc(NC3CC3)n3ncc(C#N)c3n2)cc1-n1cnnc1 | 316 | 200 | 50 | 76 | 93 | 
5 | COCCNc1ccc(Nc2cc(NC3CC3)n3ncc(C#N)c3n2)cc1-n1cnnc1 | 126 | 316 | 0.8 | 99 | 99 | 
6 | CN(CCN)c1ccc(Nc2cc(NC3CC3)n3ncc(C#N)c3n2)cc1-n1cnnc1 | 251 | 398 | 45 | 87 | 99 | 
7 | N#Cc1cnn2c(NC3CC3)cc(Nc3cccc(-n4cnnc4)c3)nc12 | 3.98 | 39.8 | 0.47 | 85 | 100 | 
8 | N#Cc1cnn2c(NC3CC3)cc(Nc3cccc(-c4cnn[nH]4)c3)nc12 | 10 | 79.4 |  | 85 | 100 | 
9 | CCN(CCN)c1ccc(Nc2cc(NC3CC3)n3ncc(C#N)c3n2)cc1-n1cnnc1 | 316 | 200 |  |  |  | Papp [5]: 0.16 10^-6 cm/s; Papp [6]: 0.36 10^-6 cm/s; CL [7]: 86 mL/min/kg; IC50 [8]: 316 nM; IC50 [9]: 5010 nM; IC50 [10]: 3160 nM; IC50 [11]: 2510 nM; IC50 [12]: 25100 nM; IC50 [13]: 2510 nM; IC50 [14]: 6310 nM; IC50 [15]: 15800 nM; Activity [16]: inactive; IC50 [17]: 1.7 nM; IC50 [18]: 0.66 nM; IC50 [19]: 80 nM; inhibition [19]: Dose-Dependent Effect; inhibition [20]: Active; Activity [21]: Non-Toxic
10 | N#Cc1cnn2c(NC3CC3)cc(Nc3cc(-n4cnnc4)ccn3)nc12 | 10 | 158 | 1.2 | 96 |  | 
11 | N#Cc1cnn2c(NC3CCC3)cc(Nc3cccc(-n4cnnc4)c3)nc12 | 7.94 | 79.4 | 0.18 | 93 |  | 
12 | CN(CCO)c1ccc(Nc2cc(NC3CC3)n3ncc(C#N)c3n2)cc1-n1cnnc1 | 126 | 200 | 38 | 97 | 95 | 
13 | N#Cc1cnn2c(NC3CC3)cc(Nc3ccc(F)c(-n4cnnc4)c3)nc12 | 5.01 | 316 | 0.3 | 99 | 99 | 
14 | N#Cc1cnn2c(NC3CC3)cc(Nc3cc(-n4cnnc4)ccc3F)nc12 | 3.16 | 6.31 | 1.5 | 59 | 86 | 
15 | N#Cc1cnn2c(NC3CC3)cc(Nc3ccnc(-n4cnnc4)c3)nc12 | 10 | 63.1 | 0.27 | 98 | 99 | 
16 | N#Cc1cnn2c(NC3CC3)cc(Nc3ccc(N4CCC[C@H](N)C4)c(-n4cnnc4)c3)nc12 | 126 | 631 | 47 |  |  | 
17 | CN[C@H]1CCCN(c2ccc(Nc3cc(NC4CC4)n4ncc(C#N)c4n3)cc2-n2cnnc2)C1 | 126 | 2000 | 56 |  |  | 
